Laboratory results as given in patent US20250333397A1 (REMIX THERAPEUTICS INC., priority 2021, published 2025).
Read-outs that look alike come from different tables or passages of the source.

Tests used:
Assay type in all cases: cell-based, human
[1] = tested on: MYB mRNA; experiment: RT-qPCR splicing assay, MYB canonical (CJ) and alternative (AJ) junction mRNA; settings: Homo sapiens; for AC50: read-out: MYB AJ (AC50, increase in AJ mRNA)
Method: (§1) Compounds described herein were used to modulate RNA transcript abundance in cells. The expression of a target mRNA was measured by detecting the formation of an exon-exon junction in the canonical transcript (CJ). A compound mediated exon-inclusion event was detected by observing an increase in formation of a new junction with an alternative exon (AJ). Real-time qPCR assays were used to detect these splicing switches and interrogate the potency of various compounds towards different target genes. A high-throughput real time quantitative PCR (RT-qPCR) assay was developed to measure these two isoforms of the mRNA (CJ and AJ) for exemplary genes, such as HTT, SMN2, and MYB, together with a control housekeeping gene, GAPDH or GUSB or PPIA, used for normalization. Briefly, the A673 or K562 cell line was treated with various compounds described herein (e.g., compounds of Formula (I), (II), (III), (IV)). After treatment, the levels of the HTT, MYB, or SMN2 mRNA targets were determined from each sample of cell lysate by cDNA synthesis followed by qPCR.
(§2) The A673 cell line was cultured in DMEM with 10% FBS. Cells were diluted with full growth media and plated in a 96-well plate (15,000 cells in 100ul media per well). The plate was incubated at 37° C. with 5% CO2 for 24 hours to allow cells to adhere. An 11-point 3-fold serial dilution of the compounds was made in DMSO then diluted in media in an intermediate plate. Compounds were transferred from the intermediate plate to the cell plate with the top dose at a final concentration of 10 uM in the well. Final DMSO concentration was kept at or below 0.25%. The cell plate was returned to the incubator at 37° C. with 5% CO2 for an additional 24 hours.
(§3) The K562 cell line was cultured in IMDM with 10% FBS. For K562, cells were diluted with full growth media and plated in either a 96-well plate (50,000 cells in 50 uL media per well) or a 384-well plate (8,000-40,000 cells in 45 uL media per well). An 11-point 3-fold serial dilution of the compounds were made in DMSO then diluted in media in an intermediate plate.
(§4) Compound was transferred from the intermediate plate to the cell plate with the top dose at a final concentration of 10 uM in the well. Final DMSO concentration was kept at or below 0.25%.
(§5) Final volume was 100 uL for 96-well plate and 50 uL for 384-well plate. The cell plate was then placed in an incubator at 37° C. with 5% CO2 for 24 hours.
(§6) The cells were then gently washed with 50 uL-100 uL cold PBS before proceeding to addition of lysis buffer. 30 uL-50 μL of room temperature lysis buffer with DNAse I (and optionally RNAsin) was added to each well. Cells were shaken/mixed thoroughly at room temperature for 5-10 minutes for lysis to take place and then 3 uL-5 μL of room temperature stop solution was added and wells were shaken/mixed again. After 2-5 minutes, the cell lysate plate was transferred to ice for RT-qPCR reaction setup. The lysates could also be frozen at −80° C. for later use.
(§7) In some cases, a direct lysis buffer was used. An appropriate volume of 3× lysis buffer (10 mM Tris, 150 mM NaCl, 1.5%-2.5% Igepal and 0.1-1 U/uL RNAsin, pH 7.4) was directly added to either K562 or A673 cells in media and mixed by pipetting 3 times. The plates were then incubated at room temperature with shaking/rocking for 20-50 minutes to allow for lysis to take place. After this time, the cell lysate plate was transferred to ice to set up for the RT-qPCR reactions. The lysates could also be frozen at −80° C. for later use.
(§8) To set up 10 uL RT-qPCR reactions, cell lysates were transferred to 384-well qPCR plates containing the master mix according to the table below. The plates were sealed, gently vortexed, and spun down before the run. The volumes were adjusted accordingly in some instances where the reaction was carried in 20 μL. The table below summarizes the components of the RT-qPCR reactions: […]

[2] = tested on: Target C mRNA; experiment: RT-qPCR splicing assay panel, Target C canonical junction (CJ) mRNA; settings: Homo sapiens
Method: as §1, §2, §3, §4, §5, §6, §7, §8

[3] = tested on: HTT mRNA; experiment: RT-qPCR splicing assay, HTT canonical (CJ) and alternative (AJ) junction mRNA; settings: Homo sapiens; for AC50: read-out: HTT AJ (AC50, increase in AJ mRNA)
Method: as §1, §2, §3, §4, §5, §6, §7, §8

[4] = tested on: SMN2 mRNA; experiment: RT-qPCR splicing assay panel, SMN2 canonical junction (CJ) mRNA; settings: Homo sapiens
Method: as §1, §2, §3, §4, §5, §6, §7, §8

[5] = 24 h, Table 3A, A673 or K562 cells, 24 h treatment
[6] = 24 h, Table 3A, A673 or K562 cells, 24 h treatment, read-out: MYB CJ (IC50, decrease in CJ mRNA)
[7] = canonical junction (CJ) mRNA, RT-qPCR panel, Table 4A, read-out: MYB, decrease in CJ mRNA levels, IC50
[8] = canonical junction (CJ) mRNA, RT-qPCR panel, Table 4A, read-out: Target C, decrease in CJ mRNA levels, IC50
[9] = 24 h, Table 3A, A673 or K562 cells, 24 h treatment, read-out: HTT CJ (IC50, decrease in CJ mRNA)
[10] = canonical junction (CJ) mRNA, RT-qPCR panel, Table 4A, read-out: HTT, decrease in CJ mRNA levels, IC50
[11] = canonical junction (CJ) mRNA, RT-qPCR panel, Table 4A, read-out: SMN2, decrease in CJ mRNA levels, IC50
[12] = 24 h, Table 3B, A673 or K562 cells, 24 h treatment

Compound | AC50 [1, 5] [nM] | IC50 [1, 6] [nM] | IC50 [1, 7] [nM] | IC50 [2, 8] [nM] | AC50 [3, 5] [nM] | IC50 [3, 9] [nM] | IC50 [3, 10] [nM] | IC50 [4, 11] [nM] | AC50 [1, 12] [nM] | IC50 ([1]; 24 h, Table 3B, A673 or K562 cells, 24 h treatment, read-out: MYB CJ (IC50, decrease in CJ mRNA)) [nM] | IC50 ([1]; Table 4B, gene panel, read-out: MYB (IC50, decrease in CJ mRNA levels)) [nM] | IC50 ([2]; Table 4B, gene panel, read-out: Target C (IC50, decrease in CJ mRNA levels)) [nM] | AC50 [3, 12] [nM] | IC50 ([3]; 24 h, Table 3B, A673 or K562 cells, 24 h treatment, read-out: HTT CJ (IC50, decrease in CJ mRNA)) [nM] | IC50 ([3]; Table 4B, gene panel, read-out: HTT (IC50, decrease in CJ mRNA levels)) [nM] | IC50 ([4]; Table 4B, gene panel, read-out: SMN2 (IC50, decrease in CJ mRNA levels)) [nM]
COc1cc(-c2ccc(-c3ccc(N4CC[C@H](N[C@H]5C[C@H](F)C5)C4)nn3)c(O)c2)ncn1 [Compound 426] | 1000 to 10000 | 1000 to 10000 | 1000 to 10000 | 1000 to 10000 | 100 to 1000 | 100 to 1000 | 100 to 1000 | 100 to 1000 |  |  |  |  |  |  |  | 
Cc1nc2cc(O)c(-c3ccc(N4CCC(NC5CCC5)C4)nn3)cc2o1 (centres unmarked) [Compound 830] |  |  |  |  |  |  |  |  | > 10000 | > 10000 | > 10000 | > 10000 | > 10000 | > 10000 | > 10000 | > 10000
Oc1cc(-n2cnnc2)c(F)cc1-c1ccc(N2CCC(NC3CCC3)C2)nn1 (centres unmarked) [Compound 315] | > 10000 | > 10000 | > 10000 | > 10000 | 1000 to 10000 | 1000 to 10000 | 1000 to 10000 | 1000 to 10000 |  |  |  |  |  |  |  | 
Cc1ncc(-c2cc(O)c(-c3ccc(N4CCC(NC5CCCC5)C4)nn3)cc2F)s1 (centres unmarked) [Compound 391] | 100 to 1000 | < 100 | < 100 | < 100 | < 100 | < 100 | < 100 | < 100 |  |  |  |  |  |  |  | 
COc1cc(-c2cc(O)c(-c3ccc(N4CC[C@@](C)(NCC5CC5)C4)nn3)cc2F)cnn1 [Compound 451, 2-{6-[(3R)-3-[(cyclopropylmethyl)amino]-3-methylpyrrolidin-1-yl]pyridazin-3-yl}-4-fluoro-5-(6-methoxypyridazin-4-yl)phenol] | 100 to 1000 | 100 to 1000 | 100 to 1000 | 100 to 1000 | 100 to 1000 | < 100 | < 100 | < 100 |  |  |  |  |  |  |  | 
Cc1nc(F)c(-c2cc(O)c(-c3ccc(N4CCC(NC5CCC5)C4)nn3)cc2F)s1 (centres unmarked) [Compound 378] | 1000 to 10000 | 1000 to 10000 | 1000 to 10000 | 1000 to 10000 | 100 to 1000 | 100 to 1000 | 100 to 1000 | 100 to 1000 |  |  |  |  |  |  |  | 
Cc1ncc(-c2cc(O)c(-c3ccc(N4CC[C@H](N[C@H](C)C5CC5)C4)nn3)cc2F)s1 [Compound 372] | < 100 | < 100 | < 100 | < 100 | < 100 | < 100 | < 100 | < 100 |  |  |  |  |  |  |  | 
CCc1cc(-c2ccc(-c3ccc(N4CC[C@H](NC5CCC5)C4)nn3)c(O)c2)cnn1 [Compound 278] | > 10000 | 1000 to 10000 | 1000 to 10000 | > 10000 | > 10000 | 1000 to 10000 | 1000 to 10000 | 1000 to 10000 |  |  |  |  |  |  |  | 
Cc1ncc(-c2ccc(-c3ccc(OC4CC(C)(C)NC(C)(C)C4)nn3)c(O)c2)s1 [Compound 329] | 100 to 1000 | 100 to 1000 | 100 to 1000 | < 100 | < 100 | < 100 | < 100 | < 100 |  |  |  |  |  |  |  | 
Cc1ncc(-c2cc(O)c(-c3ccc(N4CCC(NC5CCCCC5)C4)nn3)cc2F)s1 (centres unmarked) [Compound 410] | 100 to 1000 | 1000 to 10000 | 1000 to 10000 | 100 to 1000 | < 100 | < 100 | < 100 | < 100 |  |  |  |  |  |  |  | 
COc1nc(-c2ccc(N3CC[C@@H](NC(C)(C)C)C3)nn2)ccc1-c1cnc(C)s1 [Compound 405] | < 100 | < 100 | < 100 | < 100 | < 100 | < 100 | < 100 | < 100 |  |  |  |  |  |  |  | 
Cc1ccc(-c2cc(O)c(-c3ccc(N4CC[C@@H](NC5CCC5)C4)nn3)cc2F)cn1 [Compound 222] | 1000 to 10000 | 100 to 1000 | 100 to 1000 | 1000 to 10000 | 100 to 1000 | 100 to 1000 | 100 to 1000 | 100 to 1000 |  |  |  |  |  |  |  | 
COc1cc(-c2cc(O)c(-c3ccc(N4CCC(N[C@H]5C[C@@H](F)C5)C4)nn3)cc2F)cnn1 (some centres unmarked) [Compound 273, 4-fluoro-5-(6-methoxypyridazin-4-yl)-2-[6-(3-{[(1s,3s)-3-fluorocyclobutyl]amino}pyrrolidin-1-yl)pyridazin-3-yl]phenol] | 100 to 1000 | 100 to 1000 | 100 to 1000 | 100 to 1000 | 100 to 1000 | 100 to 1000 | 100 to 1000 | < 100 |  |  |  |  |  |  |  | 
